The text below walks through data of patent publication US20130296432A1, “BENZOIC ACID-ENRICHED PLANT EXTRACTS AND USE THEREOF” (EPC (BEIJING) NATURAL PRODUCTS CO., LTD., priority 2012, published 2013).

This experiment relates to Aspergillus niger. The experiment is described as follows: Bacteria inhibiting effect, dilution-plate method (colony count). In kind it is cell-based. Conditions: 27° C., 72 h. As for the experimental part:
• 1. […] Dilution-plate method The preservatives were dissolved with sterilized water and diluted to the concentrations in Table 1. 1 ml of each sample was added into a sterilized Petri dish, and then 1 ml bacterial suspension was added into each dish. The sample and the bacterial suspension were well mixed in the dish and 20 ml sterilized culture medium was added into the dish at ≦45° C., such that the final concentration of the preservatives is as described in Table 1. After solidification, the dish was incubated in a constant temperature incubator at 27° C. for 72 h, and the number of the colony was then counted.

Setting [1] is: final concentration of the preservative 0.01 % (extract calculated as benzoic acid).
Setting [2] is: final concentration of the preservative 0.02 % (extract calculated as benzoic acid).
[3] abbreviates: final concentration of the preservative 0.04 % (extract calculated as benzoic acid).

Turning to `O=C(O)c1ccccc1` [Benzoic acid], the Inhibition is 0% under setting [1], 40% under setting [2] and 62% under setting [3]. Further, the colony number is 49 cfu/dish under setting [1], 32 cfu/dish under setting [2] and 20 cfu/dish under setting [3].

`C/C=C/C=C/C(=O)O` [Sorbic acid]: under setting [1], the Inhibition is 0% and the colony number is reported as 50 cfu/dish. Besides, under setting [2], the Inhibition is 38% and the colony number was 33 cfu/dish.
